# Tested on: spontaneously hypertensive rats
# Test: Antihypertensive activity: systolic blood pressure measured indirectly on conscious SHR after peroral dosing
# Assay type: in vivo, rat
# Conditions: for Systolic Blood Pressure, Pretreatment: SHR (male, 13 months, 2 per sample), before 35 mg/kg peroral single dose; for Systolic Blood Pressure, 4 hrs after administration / Δ Blood Pressure: SHR; for Systolic Blood Pressure, 4 hrs after administration: 4 hours after 35 mg/kg peroral single dose; for Δ Blood Pressure: 4 hours after 35 mg/kg peroral single dose versus pretreatment
# Experimental: The antihypertensive activity of part of the amino acid derivatives prepared above, was determined.
# As subject animals 2 SHR were used which had been trained enough and been confirmed to be hypertensive spontaneously hypertensive rats (male, 13 months of age, the body weight of 400 to 440 g) per sample.
# As an instrument for measuring the blood pressure a Programmed Electro-Sphygmomanometer PE-300 (Narco Co., U.S.A.) was used, and the blood pressure was indirectly measured on conscious rats.
# An aqueous solution or suspension of a sample (35 mg/kg) was once force-fed into the stomach by means of a peroral probe.
# An antihypertensive activity of part of the amino acid derivatives prepared above was determined.
# As subject animals there were used 2 SHR which had been trained enough and been confirmed to be hypertensive spontaneously hypertensive rats (male, 13 months of age, the body weight of 400~440 g) per sample.
# As an instrument for measuring the blood pressure there was used Programmed Electro-Sphygmomanometer PE-300 (Narco Co., U.S.A.), and the blood pressure was indirectly measured on conscious rats.
# An antihypertensive activity of the product prepared above was determined.
Compound,"Systolic Blood Pressure, Pretreatment","Systolic Blood Pressure, 4 hrs after administration",Δ Blood Pressure
"C[C@H](NP(=O)(OCc1ccccc1)OCc1ccccc1)C(=O)N1CCC[C@H]1C(=O)NCC(=O)O.N=C(N)NCCC[C@H](N)C(=O)O [Example 6, Dibenzylphosphory-L-alanyl-L-prolyl-glycine L-arginine salt]",212 mm Hg,190 mm Hg,-22 mm Hg
Diethylphosphoryl-L-lysyl-L-prolyl-L-proline L-arginine salt [Example 23],190 mm Hg,165 mm Hg,-25 mm Hg
"C[C@H](NP(=O)(CCc1ccccc1)OCc1ccccc1)C(=O)N1CCC[C@H]1C(=O)N1CCC[C@H]1C(=O)O.NC(N)=NCCC[C@H](N)C(=O)O (stereo partly drawn) [Example 27, N-(O-benzyl-P-phenethylphosphonyl)-L-alanyl-L-prolyl-L-proline L-arginine salt]",180 mm Hg,152 mm Hg,-28 mm Hg
"C[C@H](NP(=O)(O)OCc1ccccc1)C(=O)N1CCC[C@H]1C(=O)N1CCC[C@H]1C(=O)O.C[C@H](NP(=O)(O)OCc1ccccc1)C(=O)N1CCC[C@H]1C(=O)N1CCC[C@H]1C(=O)O.N.N [Example 57, Monobenzylphosphoryl-L-alanyl-L-propyl-L-proline diammonium salt]",195 mm Hg,167 mm Hg,-28 mm Hg
"C[C@H](NP(=O)(OCc1ccccc1)OCc1ccccc1)C(=O)N1C[C@H](O)C[C@H]1C(=O)N1CCC[C@H]1C(=O)O (relative stereo) [Example 17, Dibenzylphosphoryl-L-alanyl-trans-L-hydroxyprolyl-L-proline]",182 mm Hg,163 mm Hg,-19 mm Hg
"C[C@H](NP(=O)(CCc1ccccc1)OCc1ccccc1)C(=O)N1CCC[C@H]1C(=O)N1CCC[C@H]1C(=O)OCc1ccccc1 (stereo partly drawn) [Example 26, N-(O-benzyl-P-phenethylphosphonyl)-L-alanyl-L-prolyl-L-proline benzylester]",182 mm Hg,160 mm Hg,-22 mm Hg
Dibenzylphoshoryl-L-alanyl-L-prolyl-L-alanine L-arginine salt [Example 12],193 mm Hg,182 mm Hg,-11 mm Hg
Phosphoryl-L-alanyl-L-prolyl-L-proline L-arginine salt [Example 8],196 mm Hg,177 mm Hg,-19 mm Hg
Dibenzylphosphoryl-L-alanyl-L-prolyl-D-proline L-arginine salt [Example 15],182 mm Hg,167 mm Hg,-15 mm Hg
Dibenzylphosphoryl-L-alanyl-L-prolyl-L-aspartic acid L-arginine salt [Example 3],208 mm Hg,197 mm Hg,-11 mm Hg
"CCOP(=O)(CCc1ccccc1)N[C@@H](CCSC)C(=O)N1CCC[C@H]1C(=O)N1CCC[C@H]1C(=O)O.NC(N)=NCCC[C@H](N)C(=O)O (stereo partly drawn) [Example 40, N--(O--ethyl-P--phenethylphosphonyl)-L-methionyl-L-prolyl-L-proline L-arginine salt]",196 mm Hg,166 mm Hg,-30 mm Hg
"COP(=O)(CCc1ccccc1)N[C@@H](CCSC)C(=O)N1CCC[C@H]1C(=O)N1CCC[C@H]1C(=O)O.NC(N)=NCCC[C@H](N)C(=O)O (stereo partly drawn) [Example 41, N--(O--methyl-P--phenethylphosphonyl)-L-methionyl-L-prolyl-L-proline L-arginine salt]",203 mm Hg,172 mm Hg,-31 mm Hg
"C[C@H](NP(=O)(OCc1ccccc1)OCc1ccccc1)C(=O)N1CCC[C@H]1C(=O)N[C@@H](Cc1ccccc1)C(=O)O.N=C(N)NCCC[C@H](N)C(=O)O [Example 5, Dibenzylphosphoryl-L-alanyl-L-prolyl-L-phenylalanyl L-arginine salt]",188 mm Hg,173 mm Hg,-15 mm Hg
Dibenzylphosphoryl-L-alanyl-L-prolyl-L-serine L-arginine salt [Example 2],202 mm Hg,180 mm Hg,-22 mm Hg
"COC(=O)[C@@H]1CCCN1C(=O)[C@@H]1CCCN1C(=O)[C@H](C)NP(=O)([O-])CCc1ccccc1.[Na+] [Example 80, N-Phenethylphosphonyl-L-alanyl-L-prolyl-L-proline methylester sodium salt]",193 mm Hg,183 mm Hg,-10 mm Hg
"CCCCCP(=O)(O)N[C@@H](C)C(=O)N1CCC[C@H]1C(=O)N1CCC[C@H]1C(=O)[O-].CCCCCP(=O)(O)N[C@@H](C)C(=O)N1CCC[C@H]1C(=O)N1CCC[C@H]1C(=O)[O-].[Na+].[Na+] [Example 38, N-n-Amylphosphonyl-L-alanyl-L-prolyl-L-proline 2 sodium salt]",187 mm Hg,167 mm Hg,-20 mm Hg
"CSCC[C@H](NP(=O)(OCc1ccccc1)OCc1ccccc1)C(=O)N1CCC[C@H]1C(=O)N1CCC[C@H]1C(=O)O.N=C(N)NCCC[C@H](N)C(=O)O [Example 33, Dibenzylphosphoryl-L-methionyl-L-propyl-L-proline L-arginine salt]",186 mm Hg,168 mm Hg,-18 mm Hg
"O=C(O)CC[C@H](NP(=O)(OCc1ccccc1)OCc1ccccc1)C(=O)N1CCC[C@H]1C(=O)N1CCC[C@H]1C(=O)O [Example 22, Dibenzylphosphoryl-L-glutamyl-L-propyl-L-proline]",206 mm Hg,196 mm Hg,-10 mm Hg
Diethylphosphoryl-L-methionyl-L-prolyl-L-proline L-argine salt [Example 44],189 mm Hg,179 mm Hg,-10 mm Hg
"C[C@H](NP(=O)(CCc1ccccc1)OCc1ccccc1)C(=O)N1CCC[C@H]1C(=O)N1CCC[C@H]1C(=O)[O-].[Na+] (stereo partly drawn) [Example 42, N--(O--benzyl-P--phenethylphosphonyl)-L-alanyl-L-prolyl-L-proline sodium salt]",194 mm Hg,180 mm Hg,-14 mm Hg
Dibenzylphosphoryl-L-alanyl-N-(2-indanyl)-glycyl-L-proline L-arginine salt [Example 31],199 mm Hg,169 mm Hg,-30 mm Hg

# Source: US4590178A (Ajinomoto Company, Incorporated, priority 1982, dated 1986)
